This note sets out measurements from patent US9988680B2, “Non-natural nucleosides as theranostic agents” (Case Western Reserve University, priority 2011, dated 2018).

Values after ≈ are worked out from the molar mass of the structure shown.

The target of data set [1] is terminal deoxynucleotidyl transferase (TdT) (Bos taurus, UniProt P06526). The experiment in a line: Incorporation of natural and non-natural nucleotides by TdT (polymerization assay, Michaelis-Menten kinetics). It counts as biochemical. As to conditions: for Km / Vmax: incorporation by TdT, 1.5 μM single-stranded DNA substrate. How it is done: All enzymatic assays were performed as previously described. […] Reactions were quenched with 200 Mm EDTA at variable times (5-600 s) and analyzed using denaturing gel electrophoresis. Time courses in product formation were fitted using eq 1: Y=mt+b(1) (1)
where y is the amount of product, m is the rate of the reaction, t is time, and b is the Y-intercept. Km and Vmax values were determined by fits of the data points to the Michaelis-Menten equation: […]
where Vmax is the maximal rate of nucleotide incorporation, Km is the Michaelis constant for dNTP, and [dNTP] is the concentration of nucleotide substrate. The IC50 value for 3-Eth-5-NITP was obtained using a nonlinear regression curve fit of the data to eq 3:
The biological function of TdT is to expand immunological diversity by randomly incorporating dNTPs into single-stranded DNA during V(D)J recombination. […] TdT also utilizes nucleotide analogues including 2′,3′-dideoxynucleotides, dinucleoside 5′,5′-tetraphosphates, and intrinsically fluorescent nucleotide analogues. In this report, we tested if TdT also incorporates indolyl-2′-deoxyribose-5′-triphosphates that bear non-natural moieties such as ethynyl and nitro groups at the 3- and 5-position, respectively, of the indole base. […] Aliquots of the reaction were quenched with EDTA at variable time points, and the polymerization reactions were then subjected to denaturing polyacrylamide gel electrophoresis to separate extended primers from unreacted substrate.
Time courses in product formation were generated using pseudo-first order reaction conditions in which 6 units of TdT were incubated with 1.5 μM DNA substrate and mixed with variable concentrations of non-natural nucleotide (0.05-50 μM). Each time course was fit to an equation for a straight line to define the rate of nucleotide incorporation (data not shown).

In data set [2] the test system is MOLT4 cells. The experiment in a line: Cell proliferation assay (trypan blue, viable vs non-viable cells), MOLT4. It counts as cell-based. How it is done: (§1) Cells were seeded at a population density of ˜200,000 cells mL-1 and treated with variable concentrations of non-natural nucleoside (0.1-100 μg mL-1) for up to 72 h. The final DMSO concentration in all experiments was 0.1%. Cell viability was assessed via trypan blue staining and counting the number of viable (clear) versus non-viable (blue) cells under a microscopy using a hemocytometer. The IC50 values for both nonnatural nucleosides were obtained using a nonlinear regression curve fit of the data to eq 3. LD50 values for the non-natural nucleosides were calculated using identical approaches.
This hypothesis was tested by measuring the cytostatic and/or cytotoxic effects of the corresponding nucleoside, 3-Eth-5-NIdR, and 5-nitroindolyl-2′-deoxynucleoside (5-NIdR) against various ALL cell lines including MOLT4, CEM-C7, Jurkat, RS4(11), JS45.01, and Loucy. Western blot analyses was first performed to determine TdT levels in each ALL cell line. […] We next tested the efficacy of 5-NIdR and 3-Eth-5-NIdR by treating exponentially growing cells with variable concentrations (0.1-100 μg mL^−1) of each non-natural nucleoside for time periods of up to 3 days.

The subject of data set [3] is Loucy cells. The experiment in a line: Cell proliferation assay (trypan blue), Loucy. It is filed as cell-based. The protocol: as §1
In data set [4] the test system is CEM-C7 cells. The experiment in a line: Cell proliferation assay (trypan blue), CEM-C7. As to conditions: CEM-C7, up to 72 h. It is filed as cell-based. The protocol:
as §1
(§2) Identical cell-based experiments were performed with the other ALL cell lines, and the corresponding IC50 and LD50 values for 5-NIdR and 3-Eth-5-NIdR against each cell line are summarized in Table 2. […] The increased potency of 3-Eth-5-NIdR likely reflects the higher catalytic efficiency for the corresponding nucleoside triphosphate to act as a chain-terminating substrate for TdT. […] In general, there is an excellent correlation (R^2=0.695, p<0.0001) between the anti-cancer effects of the non-natural nucleoside with TdT level. Similar analyses were performed by plotting the LD50 values of 3-Eth-5-NIdR as a function of TdT content (FIG. 3E).

Data set [5] concerns Jurkat cells. The experiment in a line: Cell proliferation assay (trypan blue), Jurkat. It counts as cell-based. The conditions noted are these: up to 72 h. The protocol: as §1, §2
The subject of data set [6] is RS4(11) cells. The experiment in a line: Cell proliferation assay (trypan blue), RS4(11). It is filed as cell-based. The conditions noted are these: up to 72 h. The protocol: as §1, §2
The subject of data set [7] is J45.01 cells. The experiment in a line: Cell proliferation assay (trypan blue), J45.01. It is filed as cell-based. As to conditions: J45.01, up to 72 h. The protocol: as §1, §2
The subject of data set [8] is MOLT4 cells. The experiment in a line: Apoptosis measurement (Annexin V-Alexa Fluor 488 / propidium iodide flow cytometry). It counts as cell-based. How it is done:
Cells were treated with DMSO (vehicle), 5-NIdR (100 μg mL-1), and 3-Eth-5-NIdR (10 and 40 μg mL-1) as described above. Cells were harvested by centrifugation and washed in phosphate-buffered saline and resuspended in 100 μL of binding buffer containing AnnexinV-Alexa Fluor 488 conjugate. Cells were treated with propidium iodide (PI) and incubated at RT for 15 min followed by flow cytometry analysis. This enables live cells (unstained with either Alexa Fluor 488 or PI) to be discriminated from early apoptotic (stained with Alexa Fluor 488), late apoptotic cells (stained with Alexa Fluor 488 and PI), and necrotic cells (stained with PI).
The mechanism by which these non-natural nucleosides induce cell death was interrogated using dual parameter FACS analyses measuring propidium iodide uptake and Alexa Fluor488 annexin V conjugate staining. This allows live cells (unstained with either fluorophore) to be distinguished from cells that are early apoptotic (annexin V staining only), late apoptotic (propidium iodide and annexin V staining), and necrotic (propidium iodide staining only). […] In this case, treatment with 100 μg mL^−1 5-NIdR causes a 5-fold increase in early and late stage apoptosis, respectively. […] The induction of apoptosis was also independently confirmed by using agarose gel electrophoresis to observe DNA cleavage sites between nucleosomes that occur in chromatin at ˜200-base pair intervals.

The subject of data set [9] is MOLT4 cells. The experiment in a line: In situ click reaction with AlexaFluor488-azide, flow cytometry, MOLT4. It counts as cell-based. How it is done:
(§3) In situ “click” reactions were performed using cells harvested after 2 days of treatment with DMSO, 3-Eth-5-NIdR (10, 40, or 100 μg mL^−1), 5-NIdR (100 μg mL^−1) or 5-ethynyl-2′-deoxyuridine (EdU) (10 μM). All cells were fixed with cold methanol. Under minimal lighting, cells were treated with 0.3 mL of saponin-based permeabilization and wash buffer for 45 min at 37° C. Click reactions were initiated by adding the click-iT reaction cocktail according to the instructions of the manufacturer (Invitrogen) followed by incubation at 37° C. for 90 min. Cells were then washed two times with saponin-based permeabilization and wash buffer. Cell pellets were dislodged using 0.5 mL solution of 10 μg mL^−1 PI and RNAase A in saponin-based permeabilization and wash buffer and then incubated for at least 15 min prior to flow cytometry analysis.
MOLT4 cells were treated with DMSO, EdU (a “clickable” thymidine analogue), 5-NIdR, and 3-Eth-5-NIdR for 2 days and then washed with PBS to remove any nucleoside and/or nucleotide not incorporated into DNA. After fixation and permeabilization, the cells were treated with AlexaFluor488-azide and Cu(I) catalyst to commence “clicking” of any incorporated nonnatural nucleotide. Dual parameter flow cytometry applying PI staining coupled with detection of the AlexaFluor488 fluorophore was used to detect the “clicked” non-natural nucleotide in cellular DNA. […] This high amount of “clicked” DNA reflects transport of EdU into the cell, conversion to the corresponding nucleoside triphosphate, and incorporation into the DNA of replicating cells. MOLT4 cells treated with 10 μg mL^−1 3-Eth-5-NIdR also show appreciable levels of AlexaFluor488 stained DNA (2.8%) after 2 days of treatment. Furthermore, the amount of “clicked” DNA is dosedependent as treatment with 40 μg mL^−1 Eth-5-NIdR yields a […] increase in AlexaFluor488 staining (6.5%). Identical experiments were performed using the Loucy cell line that lacks TdT and thus is less sensitive to the cytotoxic effects of the non-natural nucleoside (vide inf ra). […] Treatment with 40 μg mL^−1 of 3-Eth-5-NIdR produces low levels of “clicked” DNA (0.02%). […] Once incorporated into DNA, the non-natural nucleotide inhibits cellular DNA replication and induces apoptosis. Finally, it should be emphasized that low levels (<0.5%) of AlexaFluor488 staining are detected in cells treated with 100 μg mL^−1 5-NIdR.
Background: Flow cytometry measures light scatter and fluorescence of single cells or particles in a stream.

The test system of data set [10] is Loucy cells. The experiment in a line: In situ click reaction with AlexaFluor488-azide, flow cytometry, Loucy. It is filed as cell-based. As to conditions: 10 μM, 2 days. The protocol:
as §3
MOLT4 cells were treated with DMSO, EdU (a “clickable” thymidine analogue), 5-NIdR, and 3-Eth-5-NIdR for 2 days and then washed with PBS to remove any nucleoside and/or nucleotide not incorporated into DNA. After fixation and permeabilization, the cells were treated with AlexaFluor488-azide and Cu(I) catalyst to commence “clicking” of any incorporated nonnatural nucleotide. […] Finally, it should be emphasized that low levels (<0.5%) of AlexaFluor488 staining are detected in cells treated with 100 μg mL^−1 5-NIdR.

Where [11] appears, read: MOLT4, 100 μg mL^−1, 2 days post-treatment.
Where [12] appears, read: Loucy (TdT-negative), up to 72 h.
The mark [13] stands for this setting: MOLT4, 100 μg mL^−1, compared to DMSO.

Sequence of terminal deoxynucleotidyl transferase (TdT) (P06526 whole entry): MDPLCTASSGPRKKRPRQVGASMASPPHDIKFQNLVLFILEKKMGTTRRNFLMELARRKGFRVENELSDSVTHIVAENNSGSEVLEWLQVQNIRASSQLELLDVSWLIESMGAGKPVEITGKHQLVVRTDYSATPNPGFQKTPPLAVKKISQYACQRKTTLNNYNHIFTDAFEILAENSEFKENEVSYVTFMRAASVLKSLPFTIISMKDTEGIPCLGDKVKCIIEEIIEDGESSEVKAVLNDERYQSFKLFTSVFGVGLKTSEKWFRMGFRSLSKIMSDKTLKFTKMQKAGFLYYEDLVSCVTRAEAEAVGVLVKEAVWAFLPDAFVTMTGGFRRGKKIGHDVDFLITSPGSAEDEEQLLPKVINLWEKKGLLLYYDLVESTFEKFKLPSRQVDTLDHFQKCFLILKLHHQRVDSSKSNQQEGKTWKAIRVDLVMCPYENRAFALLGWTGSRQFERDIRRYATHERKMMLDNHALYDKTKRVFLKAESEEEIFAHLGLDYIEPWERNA

One may read the Km as the concentration of substrate that gives half-maximal velocity. The Vmax is the rate approached at saturating substrate. Consider `O=[N+]([O-])c1ccc2c(ccn2C2CC(O)C(COP(=O)(O)OP(=O)(O)OP(=O)(O)O)O2)c1` (stereo not shown) [5-NITP], for which, in [1] (100 μM nucleotide, 6 units TdT, 1.5 μM 14-mer (FIG. 2B)), the “utilization by TdT (elongation of 14-mer DNA substrate)” value is listed as “utilized by TdT as efficiently as the natural purines”. The “extension by TdT beyond the incorporated nucleotide” value in data set [1] (100 μM nucleotide, 14-mer DNA, gel (FIG. 2B)) is given as “rivals that of the natural purines”. In addition, in data set [1] (6 units TdT), the Km is 4.6 ± 0.6 µM and the maximal velocity (Vmax) was 11.5 ± 0.4 nM/s.
In general, IC50 refers to the concentration needed to halve the response being measured. On to `O=[N+]([O-])c1ccc2c(ccn2[C@H]2C[C@H](O)[C@@H](CO)O2)c1` [5-NIdR, 5-nitroindolyl-2′-deoxynucleoside, reference compound], for which, in data set [2] (setting [11]), the “increase in the number of non-viable cells” value turned out to be 2.5 fold and the “reduction in the number of viable cells” value is on record as approximately 5 fold. In data set [2] (MOLT4, up to 72 h), the IC50 was 34 ± 6 µg/mL (≈ 122 µM) and the LD50 was approximately 100 µg/mL. For the same molecule, in data set [3] (setting [12]), the IC50 is >>100 μg mL^−1 and the LD50 is listed as >>100 μg mL^−1. For the same molecule, in [3] (Loucy, 100 μg mL^−1), the “increase in the number of non-viable cells” value was “does not cause a substantial increase” and the “reduction in the number of viable cells” value is given as less than 25%. For the same molecule, in [4], the IC50 was approximately 100 µg/mL (≈ 359 µM) and the LD50 is >>100 μg mL^−1. In [5], the IC50 is approximately 100 µg/mL (≈ 359 µM) and the LD50 was >>100 μg mL^−1. Besides, in data set [6], the half-maximal inhibitory concentration (IC50) is more than 100 µg/mL and the LD50 was >>100 μg mL^−1. Besides, in data set [7], the IC50 is approximately 100 µg/mL (≈ 359 µM) and the LD50 is reported as >>100 μg mL^−1. The “PI uptake (necrotic cell death)” value in data set [8] (MOLT4) was “no significant PI uptake”. For the same molecule, in data set [8] (MOLT4, 100 μg mL^−1), the “Early apoptoic cells (%)” value stood at 26.5 ± 3.7%, the “Late apoptoic cells (%)” value came to 18.9 ± 3.4%, the “Necrotic cells (%)” value is 1.5 ± 0.5% and the “Viable cells (%)” value amounted to 53.1 ± 6.7%. In addition, in data set [8] (setting [13]), the “increase in early stage apoptosis” value is reported as 5 fold and the “increase in late stage apoptosis” value is recorded as 5 fold. In data set [9] (100 μg mL^−1, 2 days, cell line not given), the AlexaFluor488 staining was less than 0.5%.
In the case of `C#Cc1cn([C@H]2C[C@H](O)[C@@H](CO)O2)c(=O)[nH]c1=O` [EdU, 5-ethynyl-2′-deoxyuridine, reference compound], the “AlexaFluor488 stained (clicked) DNA” value in [9] (MOLT4, 10 μM, 2 days) was determined as 36.1%. The “AlexaFluor488 staining (clicked DNA)” value in [10] turned out to be 59.2%.
On to `Nc1ncnc2c1ncn2[C@H]1C[C@H](O)[C@@H](COP(=O)(O)OP(=O)(O)OP(=O)(O)O)O1` [dATP], for which, in data set [1] (6 units TdT), the Km worked out at 1.5 ± 0.4 µM and the Vmax came out at 3.3 ± 0.3 nM/s.
With `Nc1nc2c(ncn2[C@H]2C[C@H](O)[C@@H](COP(=O)(O)OP(=O)(O)OP(=O)(O)O)O2)c(=O)[nH]1` [dGTP], in data set [1] (6 units TdT), the Km amounted to 8 ± 0.9 µM and the Vmax was 29.2 ± 1.1 nM/s.
